Measurements as given in article PMC10584170, “Machine learning-based phenotypic imaging to characterise the targetable biology of Plasmodium falciparum male gametocytes for the development of transmission-blocking antimalarials” (PLOS Pathogens, 2023).
Like-named read-outs stand apart in the source and are kept apart here.

How the values were obtained:
[1] = tested on: P. falciparum male gametocytes; assay: P. falciparum Dual Gamete Formation Assay (PfDGFA), male readout (exflagellation); format: cell-based, Plasmodium falciparum NF54
Protocol: (§1) P. falciparum NF54 (originally isolated from an imported malaria case in the Netherlands in the 1980s; BEI Resources, cat. No. MRA-1000) strain asexual parasites were maintained between 0.3–5% parasitaemia by regular passage in complete culture medium (RPMI supplemented with 25 mM HEPES, 50 μg ml^−1 hypoxanthine, 4.8 g l^−1 NaHCO3, 2mM L-glutamine, 5% pooled type AB serum, 0.5% Albumax II (Gibco)) at 4% haematocrit in washed whole blood (National Blood and Transfusion Service or Centro de Transfusiones de la Comunidad de Madrid CTCM) under a 1% O2/3% CO2/96% N2 environment. Gametocytes were induced by seeding culture flasks at 2% parasitaemia/4% haematocrit and subjecting them to daily medium changes for 14 days whilst maintaining a temperature of 37°C at all times. On Day 14, the maturity of gametocytes was assessed by quantifying male gametogenesis (exflagellation). A 20 μl sample of gametocyte culture was mixed with equal volume of ookinete medium (complete culture medium supplemented with 0.1 μM xanthurenic acid) at room temperature and transferred to a haemocytometer. After 20 min at room temperature, exflagellation was accurately quantified as described in Delves et al. 2016 [17].
(§2) The Pf DGFA was performed as described in Delves et al. 2016 [17]. […] Plates were then incubated for 24 h at 37°C in a humidified box under a 1% O2/3% CO2/96% N2 gas mix. Gametogenesis was triggered by addition of 10 μl per well of ookinete medium + 0.27 μg ml^-1 Cy3-labelled anti-Pfs25 antibody. Plates were incubated on a metal block at 4°C for 4 min to ensure even cooling, then 28°C for a further 4 min. Exflagellation was recorded by capturing 10 frames over 1 s under brightfield illumination using a x4 objective with a 1.5x zoom (effectively x6) attached to an automated Nikon Ti fluorescence microscope. After recording exflagellation, plates were incubated for a further 24 h in the dark at 28°C to ensure maximal expression of Pfs25 by female gametes. The plates were then returned to the microscope and female gametes imaged at x6 using fluorescence microscopy.
(§3) Exflagellation centres and female gametes were quantified using custom image analysis pipelines developed within ICY Bioimage Analysis (https://icy.bioimageanalysis.org/).

[2] = tested on: P. falciparum female gametocytes; assay: P. falciparum Dual Gamete Formation Assay (PfDGFA), female readout (Pfs25-positive female gametes); format: cell-based, Plasmodium falciparum NF54
Protocol: as §1, §2, §3

[3] = PfDGFA at 2µM, 24h preincubation with gametocytes prior to induction of gametogenesis, replicate R1
[4] = PfDGFA at 2µM, 24h preincubation with gametocytes prior to induction of gametogenesis, replicate R3
[5] = PfDGFA at 2µM, 24h preincubation with gametocytes prior to induction of gametogenesis, replicate R4
[6] = PfDGFA at 2µM, 24h preincubation, average of replicates
[7] = 2µM, 24h preincubation with gametocytes prior to induction of gametogenesis, average of replicates
[8] = 2µM, 24h preincubation with gametocytes prior to induction of gametogenesis, replicate R1
[9] = 2µM, 24h preincubation with gametocytes prior to induction of gametogenesis, replicate R3
[10] = 2µM, 24h preincubation with gametocytes prior to induction of gametogenesis, replicate R4
[11] = 2µM, 24h preincubation with gametocytes, average of replicates
[12] = 2µM, 24h preincubation with gametocytes, replicate R1
[13] = 2µM, 24h preincubation with gametocytes, replicate R3
[14] = 2µM, 24h preincubation with gametocytes, replicate R4

| Structure (SMILES) | % inhibition male (individual replicates) R1 [1, 3] | % inhibition male (individual replicates) R3 [1, 4] | % inhibition male (individual replicates) R4 [1, 5] | Average inhibition male (%) [1, 6] | % inhibition female (individual replicates) R1 [2, 3] | % inhibition female (individual replicates) R3 [2, 4] | % inhibition female (individual replicates) R4 [2, 5] | Average inhibition female (%) [2, 6] | Average inhibition male (%) [1, 11] | % inhibition male (individual replicates) R1 [1, 12] | % inhibition male (individual replicates) R4 [1, 14] | Average inhibition female (%) [2, 11] | % inhibition female (individual replicates) R1 [2, 12] | % inhibition female (individual replicates) R3 [2, 13] | % inhibition female (individual replicates) R4 [2, 14] | other results |
| --- | --- | --- | --- | --- | --- | --- | --- | --- | --- | --- | --- | --- | --- | --- | --- | --- |
| c1ccc2sc(Sc3ncnc4sccc34)nc2c1 [TCMDC-125539] |  |  |  |  |  |  |  |  |  |  |  |  |  |  |  | Selectivity Ratio M ([1]; HepG2 Tox50 versus male IC50): 337.73; inhibition at 2 µM ([1]; Plasmodium falciparum, 2µM, 24h preincubation with gametocytes, average of replicates, read-out: Average inhibition male (%)): 97.1%; inhibition at 2 µM ([1]; Plasmodium falciparum, 2µM, 24h preincubation with gametocytes, replicate R1, read-out: % inhibition male (individual replicates) R1): 100%; inhibition at 2 µM ([1]; Plasmodium falciparum, 2µM, 24h preincubation with gametocytes, replicate R2, read-out: % inhibition male (individual replicates) R2): 97.4%; inhibition at 2 µM ([1]; Plasmodium falciparum, 2µM, 24h preincubation with gametocytes, replicate R3, read-out: % inhibition male (individual replicates) R3): 95.7%; inhibition at 2 µM ([1]; Plasmodium falciparum, 2µM, 24h preincubation with gametocytes, replicate R4, read-out: % inhibition male (individual replicates) R4): 94.9%; IC50 ([1]; Plasmodium falciparum, PfDGFA, 24 h incubation with gametocytes before induction, exflagellation readout, read-out: Male IC50): 300 nM; Selectivity ratio F ([2]; HepG2 Tox50 versus female IC50): 340.93; inhibition at 2 µM ([2]; Plasmodium falciparum, 2µM, 24h preincubation with gametocytes, average of replicates, read-out: Average inhibition female (%)): 60%; inhibition at 2 µM ([2]; Plasmodium falciparum, 2µM, 24h preincubation with gametocytes, replicate R1, read-out: % inhibition female (individual replicates) R1): 39.3%; inhibition at 2 µM ([2]; Plasmodium falciparum, 2µM, 24h preincubation with gametocytes, replicate R2, read-out: % inhibition female (individual replicates) R2): 92.2%; inhibition at 2 µM ([2]; Plasmodium falciparum, 2µM, 24h preincubation with gametocytes, replicate R3, read-out: % inhibition female (individual replicates) R3): 35.1%; inhibition at 2 µM ([2]; Plasmodium falciparum, 2µM, 24h preincubation with gametocytes, replicate R4, read-out: % inhibition female (individual replicates) R4): 73.5%; IC50 ([2]; Plasmodium falciparum, PfDGFA, 24 h incubation with gametocytes before induction, female gamete readout, read-out: Female IC50): 290 nM |
| CN1CCN(c2cc(-c3cccnc3)nc(-c3ccncc3)n2)CC1 [TCMDC-125593] | -6.4% | -15.1% | 5.5% | -4.3% | -2.3% | -6.8% | 22.4% | 0.0475% |  |  |  |  |  |  |  |  |
| Br.CCCCCCCCn1c2c(c(=N)c3c1CCC3)CCCC2 [TCMDC-125653] |  |  |  |  |  |  |  |  |  |  |  |  |  |  |  | Average inhibition male (%) [1, 7]: 42.3%; % inhibition male (individual replicates) R1 [1, 8]: 42.8%; % inhibition male (individual replicates) R3 [1, 9]: 52.3%; % inhibition male (individual replicates) R4 [1, 10]: 40.6%; HitlevelM ([1]; 2µM, 24h preincubation, hits selected on >50% inhibition in the male readout across replicates): 1; Activity ([1]; PfDGFA at 2µM, 24h preincubation, hit = >50% inhibition in male or female readout in at least 3 replicates, 0 = no class assigned): 0; Average inhibition female (%) [2, 7]: 10.3%; % inhibition female (individual replicates) R1 [2, 8]: 8.6%; % inhibition female (individual replicates) R3 [2, 9]: 3.3%; % inhibition female (individual replicates) R4 [2, 10]: 15.0%; HitlevelF ([2]; 2µM, 24h preincubation, hits selected on >50% inhibition in the female readout across replicates): 0 |
| COc1ccc2nc3cc(Cl)ccc3c(N)c2c1.Cl [TCMDC-125835] |  |  |  |  |  |  |  |  | 96.0% | 94.1% | 101.6% | 50.6% | 39.5% | 15.3% | 62.7% | % inhibition male (individual replicates) R3 [1, 13]: 90.9% |
| Clc1ccc(Cc2nc3ccccc3[nH]2)cc1Cl [TCMDC-125878] | 0.8% | -14.5% | 2.2% | -4.5% | 8.9% | -15.0% | -0.8% | 0.655% |  |  |  |  |  |  |  |  |
| COc1ccc(CCNCCCCCCNCCc2ccc(-c3ccccc3)cc2)cc1OC.Cl [TCMDC-131267] |  |  |  |  |  |  |  |  | 91.2% | 90.5% | 88.4% | 51.9% | 49.5% | 51.6% | 50.9% |  |
